CO/N=C1\C[C@]2(C[C@@H]3C[C@@H](C/C=C(\C)C[C@@H](C)/C=C/C=C4\CO[C@@H]5[C@H](O)C(C)=C[C@@H](C(=O)O3)[C@]45O)O2)O[C@H](/C(C)=C/C(C)C)[C@H]1C
solubility (mole fraction)
Settings	278.15 K	283.15 K	288.15 K	293.15 K	298.15 K	303.15 K	308.15 K	313.15 K	318.15 K	323.15 K
in ethanol	0.0532	0.0674	0.0814	0.097	0.114	0.133	0.153	0.173	0.196	0.223
in ethylene glycol	0.00364	0.0049	0.00631	0.00796	0.00975	0.0117	0.0137	0.0157	0.0181	0.021
in isopropanol	0.00799	0.0107	0.0139	0.0178	0.0211	0.0253	0.0296	0.0346	0.04	0.0455
in methanol	0.0243	0.0306	0.0383	0.0454	0.0545	0.0634	0.0729	0.0822	0.0927	0.105
in water	3.75e-06	5.13e-06	6.71e-06	8.61e-06	1.08e-05	1.33e-05	1.59e-05	1.85e-05	2.14e-05	2.49e-05
